Data as given in patent US9617244B2, “Antibacterial quinoline derivatives” (JANSSEN PHARMACEUTICA NV, priority 2012, dated 2017).
Converted amounts (≈) assume the structure as drawn.

What follows are compounds tested on Staphylococcus aureus (ATCC29213) (assay: In-vitro anti-bacterial activity, microtitre plate assay, IC90 determination (non-mycobacterial strains)). Details: 90% inhibitory concentration for bacterial growth, 24 hours, resazurin fluorescence.
Format: cell-based
How it was run: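 Growth inhibition measured fluorometrically with resazurin (530/590 nm) after overnight 37 °C incubation under normal atmosphere. Bacteria added at roughly 100 TCID50 per well in Mueller-Hinton broth to five-fold compound dilution series; IC90 reported in μg/ml.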

Row | Compound | IC90 STA B29213
1 | O=c1[nH]c2ccc(Br)cc2cc1C(c1ccc(Cl)cc1)C1(O)CCNC(Cc2ccc(F)cc2F)C1 (centres unmarked) [Compound 314] | 3.05 µg/mL (≈ 5.31 µM)
2 | O=c1[nH]c2ccc(Br)cc2cc1C(c1ccc(Cl)cc1)C1(O)CCNC(Cc2ccc(F)cc2F)C1 (centres unmarked) [Compound 315] | 3.84 µg/mL (≈ 6.69 µM)
3 | O=c1[nH]c2ccc(Br)cc2cc1C(c1ccc(Cl)cc1)C1(O)CCNC(Cc2ccc(F)cc2F)C1 (centres unmarked) [Compound 316] | 3.84 µg/mL (≈ 6.69 µM)
4 | O=c1[nH]c2ccc(Br)cc2cc1C(c1ccc(Cl)cc1)C1(O)CCNC(Cc2ccc(F)cc2F)C1 (centres unmarked) [Compound 317] | 1.92 µg/mL (≈ 3.35 µM)
5 | COc1nc2ccc(Br)cc2cc1C(c1ccc(Cl)cc1)C1(O)CCNC(Cc2ccc(F)cc2F)C1 (centres unmarked) [Compound 319] | 2.40 µg/mL (≈ 4.08 µM)
6 | O=c1[nH]c2ccc(Br)cc2cc1C(c1ccc(Cl)cc1)C1(O)CCNC(Cc2ccc(F)cc2F)C1 (centres unmarked) [Compound 321] | 15.33 µg/mL (≈ 26.7 µM)
7 | O=c1[nH]c2ccc(Br)cc2cc1C(c1ccc(Cl)cc1)C1(O)CCNC(Cc2ccc(F)cc2F)C1 (centres unmarked) [Compound 322] | 2.43 µg/mL (≈ 4.23 µM)
8 | O=c1[nH]c2ccc(Br)cc2cc1C(c1ccc(Cl)cc1)C1(O)CCNC(Cc2ccc(F)cc2F)C1 (centres unmarked) [Compound 323] | 7.68 µg/mL (≈ 13.4 µM)
9 | O=c1[nH]c2ccc(Br)cc2cc1C(c1ccc(Cl)cc1)C1(O)CCNC(Cc2ccc(F)cc2F)C1 (centres unmarked) [Compound 324] | 1.93 µg/mL (≈ 3.36 µM)
10 | COc1nc2ccc(S(C)(=O)=O)cc2cc1C(c1cccc(Cl)c1)C1(O)CCNC(Cc2ccc(F)cc2F)C1 (centres unmarked) [Compound 325] | >19.04 µg/mL
11 | COc1nc2ccc(S(C)(=O)=O)cc2cc1C(c1cccc(Cl)c1)C1(O)CCNC(Cc2ccc(F)cc2F)C1 (centres unmarked) [Compound 326] | 5.37 µg/mL (≈ 9.15 µM)
12 | CS(=O)(=O)c1ccc2[nH]c(=O)c(C(c3cccc(Cl)c3)C3(O)CCNC(Cc4ccc(F)cc4F)C3)cc2c1 (centres unmarked) [Compound 327] | >15.31 µg/mL
13 | CS(=O)(=O)c1ccc2[nH]c(=O)c(C(c3cccc(Cl)c3)C3(O)CCNC(Cc4ccc(F)cc4F)C3)cc2c1 (centres unmarked) [Compound 328] | 15.31 µg/mL (≈ 26.7 µM)
14 | CSc1ccc2[nH]c(=O)c(C(c3cccc(Cl)c3)C3(O)CCNC(Cc4ccc(F)cc4F)C3)cc2c1 (centres unmarked) [Compound 329] | 7.27 µg/mL (≈ 13.4 µM)
15 | COc1nc2ccc(F)cc2cc1C(c1ccc(Cl)cc1)C1(O)CCNC(c2ccc(F)cc2C)C1 (centres unmarked) [Compound 330] | 2.08 µg/mL (≈ 4.09 µM)
16 | COc1nc2ccc(F)cc2cc1C(c1ccc(Cl)cc1)C1(O)CCNC(c2ccc(F)cc2C)C1 (centres unmarked) [Compound 331] | 1.06 µg/mL (≈ 2.08 µM)
17 | COc1nc2ccc(F)cc2cc1C(c1ccc(Cl)cc1)C1(O)CCNC(c2ccc(F)cc2C)C1 (centres unmarked) [Compound 332] | 4.38 µg/mL (≈ 8.61 µM)
18 | CSc1ccc2[nH]c(=O)c(C(c3ccc(Cl)cc3)C3(O)CCNC(Cc4ccc(F)cc4)C3)cc2c1 (centres unmarked) [Compound 333] | 2.50 µg/mL (≈ 4.78 µM)
19 | CSc1ccc2[nH]c(=O)c(C(c3ccc(Cl)cc3)C3(O)CCNC(Cc4ccc(F)cc4)C3)cc2c1 (centres unmarked) [Compound 334] | 8.87 µg/mL (≈ 17 µM)
20 | O=c1[nH]c2ccc(Br)cc2cc1C(c1ccc(Cl)cc1)C1(O)CCNCC1Cc1cccc(F)c1 (centres unmarked) [Compound 336] | 3.51 µg/mL (≈ 6.31 µM)
21 | O=c1[nH]c2ccc(Br)cc2cc1C(c1ccc(Cl)cc1)C1(O)CCNC(Cc2ccc(F)cc2)C1 (centres unmarked) [Compound 341] | 2.36 µg/mL (≈ 4.25 µM)
22 | O=c1[nH]c2ccc(Br)cc2cc1C(c1ccc(Cl)cc1)C1(O)CCNC(Cc2ccc(F)cc2)C1 (centres unmarked) [Compound 342] | 7.46 µg/mL (≈ 13.4 µM)
23 | O=c1[nH]c2ccc(Cl)cc2cc1C(c1ccc(Cl)cc1)C1(O)CCNC(Cc2ccc(F)cc2)C1 (centres unmarked) [Compound 344] | 3.46 µg/mL (≈ 6.77 µM)
24 | COc1nc2ccc(Cl)cc2cc1C(c1ccc(Cl)cc1)C1(O)CCNC(Cc2ccc(F)cc2)C1 (centres unmarked) [Compound 345] | 4.38 µg/mL (≈ 8.34 µM)
25 | COc1nc2ccc(Cl)cc2cc1C(c1ccc(Cl)cc1)C1(O)CCNC(Cc2ccc(F)cc2)C1 (centres unmarked) [Compound 346] | 2.13 µg/mL (≈ 4.05 µM)

The compounds below were run on Mycobacterium smegmatis (ATCC607) (assay: In-vitro anti-bacterial activity against strain M. Smegmatis ATCC607). Details: 90% inhibitory concentration for bacterial growth, 48 hours, Alamar Blue fluorescence.
Format: cell-based
How it was run: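 IC90 (μg/ml) derived from Alamar Blue fluorescence (530/590 nm) after 48 h growth at 37 °C under 5% CO2. About 250 CFU per well in Mueller-Hinton broth faced five-fold serial compound dilutions in BSA-containing wells.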

Row | Compound | IC90 MSM 607
26 | O=c1[nH]c2ccc(Br)cc2cc1C(c1ccc(Cl)cc1)C1(O)CCNC(Cc2ccc(F)cc2F)C1 (centres unmarked) [Compound 314] | 4.83 µg/mL (≈ 8.42 µM)
27 | O=c1[nH]c2ccc(Br)cc2cc1C(c1ccc(Cl)cc1)C1(O)CCNC(Cc2ccc(F)cc2F)C1 (centres unmarked) [Compound 315] | 3.84 µg/mL (≈ 6.69 µM)
28 | O=c1[nH]c2ccc(Br)cc2cc1C(c1ccc(Cl)cc1)C1(O)CCNC(Cc2ccc(F)cc2F)C1 (centres unmarked) [Compound 316] | 3.05 µg/mL (≈ 5.31 µM)
29 | O=c1[nH]c2ccc(Br)cc2cc1C(c1ccc(Cl)cc1)C1(O)CCNC(Cc2ccc(F)cc2F)C1 (centres unmarked) [Compound 317] | 1.92 µg/mL (≈ 3.35 µM)
30 | COc1nc2ccc(Br)cc2cc1C(c1ccc(Cl)cc1)C1(O)CCNC(Cc2ccc(F)cc2F)C1 (centres unmarked) [Compound 319] | 2.40 µg/mL (≈ 4.08 µM)
31 | O=c1[nH]c2ccc(Br)cc2cc1C(c1ccc(Cl)cc1)C1(O)CCNC(Cc2ccc(F)cc2F)C1 (centres unmarked) [Compound 321] | 12.18 µg/mL (≈ 21.2 µM)
32 | O=c1[nH]c2ccc(Br)cc2cc1C(c1ccc(Cl)cc1)C1(O)CCNC(Cc2ccc(F)cc2F)C1 (centres unmarked) [Compound 322] | 3.85 µg/mL (≈ 6.71 µM)
33 | O=c1[nH]c2ccc(Br)cc2cc1C(c1ccc(Cl)cc1)C1(O)CCNC(Cc2ccc(F)cc2F)C1 (centres unmarked) [Compound 323] | 6.10 µg/mL (≈ 10.6 µM)
34 | O=c1[nH]c2ccc(Br)cc2cc1C(c1ccc(Cl)cc1)C1(O)CCNC(Cc2ccc(F)cc2F)C1 (centres unmarked) [Compound 324] | 3.43 µg/mL (≈ 5.98 µM)
35 | COc1nc2ccc(S(C)(=O)=O)cc2cc1C(c1cccc(Cl)c1)C1(O)CCNC(Cc2ccc(F)cc2F)C1 (centres unmarked) [Compound 325] | 19.04 µg/mL (≈ 32.4 µM)
36 | COc1nc2ccc(S(C)(=O)=O)cc2cc1C(c1cccc(Cl)c1)C1(O)CCNC(Cc2ccc(F)cc2F)C1 (centres unmarked) [Compound 326] | 4.78 µg/mL (≈ 8.14 µM)
37 | CS(=O)(=O)c1ccc2[nH]c(=O)c(C(c3cccc(Cl)c3)C3(O)CCNC(Cc4ccc(F)cc4F)C3)cc2c1 (centres unmarked) [Compound 327] | >15.31 µg/mL
38 | CS(=O)(=O)c1ccc2[nH]c(=O)c(C(c3cccc(Cl)c3)C3(O)CCNC(Cc4ccc(F)cc4F)C3)cc2c1 (centres unmarked) [Compound 328] | 12.16 µg/mL (≈ 21.2 µM)
39 | CSc1ccc2[nH]c(=O)c(C(c3cccc(Cl)c3)C3(O)CCNC(Cc4ccc(F)cc4F)C3)cc2c1 (centres unmarked) [Compound 329] | 7.27 µg/mL (≈ 13.4 µM)
40 | COc1nc2ccc(F)cc2cc1C(c1ccc(Cl)cc1)C1(O)CCNC(c2ccc(F)cc2C)C1 (centres unmarked) [Compound 330] | 1.04 µg/mL (≈ 2.04 µM)
41 | COc1nc2ccc(F)cc2cc1C(c1ccc(Cl)cc1)C1(O)CCNC(c2ccc(F)cc2C)C1 (centres unmarked) [Compound 331] | 0.94 µg/mL (≈ 1.85 µM)
42 | COc1nc2ccc(F)cc2cc1C(c1ccc(Cl)cc1)C1(O)CCNC(c2ccc(F)cc2C)C1 (centres unmarked) [Compound 332] | 2.20 µg/mL (≈ 4.32 µM)
43 | CSc1ccc2[nH]c(=O)c(C(c3ccc(Cl)cc3)C3(O)CCNC(Cc4ccc(F)cc4)C3)cc2c1 (centres unmarked) [Compound 333] | 3.53 µg/mL (≈ 6.75 µM)
44 | CSc1ccc2[nH]c(=O)c(C(c3ccc(Cl)cc3)C3(O)CCNC(Cc4ccc(F)cc4)C3)cc2c1 (centres unmarked) [Compound 334] | 7.04 µg/mL (≈ 13.5 µM)
45 | O=c1[nH]c2ccc(Br)cc2cc1C(c1ccc(Cl)cc1)C1(O)CCNCC1Cc1cccc(F)c1 (centres unmarked) [Compound 336] | 7.00 µg/mL (≈ 12.6 µM)
46 | O=c1[nH]c2ccc(Br)cc2cc1C(c1ccc(Cl)cc1)C1(O)CCNC(Cc2ccc(F)cc2)C1 (centres unmarked) [Compound 342] | 3.74 µg/mL (≈ 6.73 µM)
47 | O=c1[nH]c2ccc(Cl)cc2cc1C(c1ccc(Cl)cc1)C1(O)CCNC(Cc2ccc(F)cc2)C1 (centres unmarked) [Compound 344] | 8.68 µg/mL (≈ 17 µM)
48 | COc1nc2ccc(Cl)cc2cc1C(c1ccc(Cl)cc1)C1(O)CCNC(Cc2ccc(F)cc2)C1 (centres unmarked) [Compound 345] | 3.48 µg/mL (≈ 6.62 µM)
49 | COc1nc2ccc(Cl)cc2cc1C(c1ccc(Cl)cc1)C1(O)CCNC(Cc2ccc(F)cc2)C1 (centres unmarked) [Compound 346] | 1.69 µg/mL (≈ 3.22 µM)

Same assay, conditions: Mycolicibacterium smegmatis, ATCC607, 48 h, 90% inhibitory concentration for bacterial growth, Alamar Blue fluorescence, read-out: IC90 MSM 607

Row | Compound | IC90
50 | O=c1[nH]c2ccc(Br)cc2cc1C(c1ccc(Cl)cc1)C1(O)CCNC(Cc2ccc(F)cc2)C1 (centres unmarked) [Compound 341] | 4.71 µg/mL (≈ 8.47 µM)
